Source: patent publication US20230381157A1, “RIFABUTIN FOR THE TREATMENT OF ACINETOBACTER BAUMANNII” (University of Southern California, priority 2018, published 2023)
Values after ≈ are worked out from the molar mass of the structure shown. Like-named read-outs stand apart in the source and are kept apart here.

How the values were obtained:
[1] = test system: A. baumannii AB5075 transposon disruption mutants; assay: microbe, parasite or virus in culture; format: cell-based, Acinetobacter baumannii; details: for MIC: Acinetobacter baumannii
[2] = Murine neuropenic lung infection model; format: in vivo, mouse

With `CO[C@H]1/C=C/O[C@@]2(C)Oc3c(C)c(O)c4c(c3C2=O)C2=NC3(CCN(CC(C)C)CC3)NC2=C(NC(=O)/C(C)=C\C=C\[C@H](C)[C@H](O)[C@@H](C)[C@@H](O)[C@@H](C)[C@H](OC(C)=O)[C@@H]1C)C4=O` [rifabutin] the “Rifabutin MIC” value ([1]; AB06386, disrupted gene hisP, RPMI, listed as RBT) was 0.05 µg/mL, the “Rifabutin MIC” value ([1]; AB06392, disrupted gene hisP, RPMI, listed as RBT) was 0.05 µg/mL and the Rifabutin MIC ([1]; AB06694, ABUW_2539 (IS4 family transposase), MHII) was 3.13 µg/mL. It also gave a Rifabutin MIC ([1]; AB06694, ABUW_2539 (IS4 family transposase), RPMI) of 0.05 µg/mL, a Rifabutin MIC ([1]; AB06695, ABUW_2539, MHII) of 3.13 µg/mL and a Rifabutin MIC ([1]; AB06695, ABUW_2539, RPMI) of 0.05 µg/mL. For the same molecule, the Rifabutin MIC ([1]; AB06731, ABUW_2557 (hypothetical protein(epoxyqueuosine reductase QueH)), MHII) was 3.13 µg/mL, the Rifabutin MIC ([1]; AB06731, ABUW_2557 (hypothetical protein(epoxyqueuosine reductase QueH)), RPMI) was 0.05 µg/mL and the Rifabutin MIC ([1]; AB06732, ABUW_2557, MHII) was 6.25 µg/mL. For the same molecule, the Rifabutin MIC ([1]; AB06732, ABUW_2557, RPMI) was 0.05 µg/mL, the Rifabutin MIC ([1]; AB06821, ABUW_2586 (allophanate hydrolase), MHII) was 3.13 µg/mL and the Rifabutin MIC ([1]; AB06821, ABUW_2586 (allophanate hydrolase), RPMI) was 0.05 µg/mL. For the same molecule, the Rifabutin MIC ([1]; AB06822, ABUW_2586, MHII) was 3.13 µg/mL, the Rifabutin MIC ([1]; AB06822, ABUW_2586, RPMI) was 0.05 µg/mL and the “Rifabutin MIC” value ([1]; AB07354, disrupted gene aroP, RPMI, listed as RBT) was 0.05 µg/mL. For the same molecule, the “Rifabutin MIC” value ([1]; AB07356, disrupted gene aroP, RPMI, listed as RBT) was 0.05 µg/mL, the Rifabutin MIC ([1]; AB07566, ABUW_2893 (hypothetical protein), MHII) was 0.78 µg/mL and the Rifabutin MIC ([1]; AB07566, ABUW_2893 (hypothetical protein), RPMI) was 0.05 µg/mL. The Rifabutin MIC ([1]; AB07567, ABUW_2893, MHII) was 0.78 µg/mL, the Rifabutin MIC ([1]; AB07567, ABUW_2893, RPMI) was 0.05 µg/mL and the “Rifabutin MIC” value ([1]; AB07813, disrupted gene mtr, RPMI, listed as RBT) was 0.05 µg/mL. For the same molecule, the Rifabutin MIC ([1]; AB09112, ABUW_3470 (Zn-dependent hydrolase), MHII) was 0.78 µg/mL, the Rifabutin MIC ([1]; AB09112, ABUW_3470 (Zn-dependent hydrolase), RPMI) was 0.05 µg/mL and the Rifabutin MIC ([1]; AB09114, ABUW_3470, MHII) was 0.78 µg/mL. For the same molecule, the Rifabutin MIC ([1]; AB09114, ABUW_3470, RPMI) was 0.05 µg/mL, the “Rifabutin MIC” value ([1]; AB09979, disrupted gene aroP, RPMI, listed as RBT) was 0.05 µg/mL and the “Rifabutin MIC” value ([1]; AB09980, disrupted gene tryP, RPMI, listed as RBT) was 0.05 µg/mL. For the same molecule, the “Rifabutin MIC” value ([1]; AB09982, disrupted gene tryP, RPMI, listed as RBT) was 0.05 µg/mL, the Rifabutin MIC ([1]; AB10057, ABUW_3811 (DID), MHII) was 3.13 µg/mL and the Rifabutin MIC ([1]; AB10057, ABUW_3811 (DID), RPMI) was 0.05 µg/mL. For the same molecule, the Rifabutin MIC ([1]; AB10058, ABUW_3811, MHII) was 3.13 µg/mL, the Rifabutin MIC ([1]; AB10058, ABUW_3811, RPMI) was 0.05 µg/mL and the MIC ([1]; read-out: Rifabutin MIC, AB00188, disrupted gene aroP, MHII) was 3.13 µg/mL (≈ 3.7 µM). It also gave an MIC ([1]; read-out: Rifabutin MIC, AB00188, disrupted gene aroP, RPMI) of less than 0.05 µg/mL, an MIC ([1]; read-out: Rifabutin MIC, AB00190, disrupted gene aroP, MHII) of 6.25 µg/mL (≈ 7.38 µM) and an MIC ([1]; read-out: Rifabutin MIC, AB00190, disrupted gene aroP, RPMI) of less than 0.05 µg/mL. The MIC ([1]; read-out: Rifabutin MIC, AB00215, disrupted gene tryP, MHII) was 6.25 µg/mL (≈ 7.38 µM), the MIC ([1]; read-out: Rifabutin MIC, AB00215, disrupted gene tryP, RPMI) was less than 0.05 µg/mL and the MIC ([1]; read-out: Rifabutin MIC, AB00216, disrupted gene tryP, MHII) was 1.56 µg/mL (≈ 1.84 µM). The MIC ([1]; read-out: Rifabutin MIC, AB00216, disrupted gene tryP, RPMI) was less than 0.05 µg/mL, the MIC ([1]; read-out: Rifabutin MIC, AB02204, disrupted gene aroP, MHII) was 6.25 µg/mL (≈ 7.38 µM) and the MIC ([1]; read-out: Rifabutin MIC, AB02204, disrupted gene aroP, RPMI) was less than 0.05 µg/mL. For the same molecule, the MIC ([1]; read-out: Rifabutin MIC, AB02205, disrupted gene aroP, MHII) was 3.13 µg/mL (≈ 3.7 µM), the MIC ([1]; read-out: Rifabutin MIC, AB02205, disrupted gene aroP, RPMI) was less than 0.05 µg/mL and the MIC ([1]; read-out: Rifabutin MIC, AB03015, disrupted gene aroP, MHII) was 6.25 µg/mL (≈ 7.38 µM). It also gave an MIC ([1]; read-out: Rifabutin MIC, AB03015, disrupted gene aroP, RPMI) of less than 0.05 µg/mL, an MIC ([1]; read-out: Rifabutin MIC, AB03608, disrupted gene hisJ, MHII) of 3.13 µg/mL (≈ 3.7 µM) and an MIC ([1]; read-out: Rifabutin MIC, AB03608, disrupted gene hisJ, RPMI) of less than 0.05 µg/mL. The MIC ([1]; read-out: Rifabutin MIC, AB03612, disrupted gene hisM, MHII) was 3.13 µg/mL (≈ 3.7 µM), the MIC ([1]; read-out: Rifabutin MIC, AB03612, disrupted gene hisM, RPMI) was less than 0.05 µg/mL and the MIC ([1]; read-out: Rifabutin MIC, AB03616, disrupted gene hisM, MHII) was 6.25 µg/mL (≈ 7.38 µM). For the same molecule, the MIC ([1]; read-out: Rifabutin MIC, AB03616, disrupted gene hisM, RPMI) was less than 0.05 µg/mL, the MIC ([1]; read-out: Rifabutin MIC, AB03618, disrupted gene hisM, MHII) was 6.25 µg/mL (≈ 7.38 µM) and the MIC ([1]; read-out: Rifabutin MIC, AB03618, disrupted gene hisM, RPMI) was less than 0.05 µg/mL. It also gave an MIC ([1]; read-out: Rifabutin MIC, AB5075-UW (parent strain), MHII) of 6.25 µg/mL (≈ 7.38 µM), an MIC ([1]; read-out: Rifabutin MIC, AB5075-UW (parent strain), RPMI) of less than 0.05 µg/mL and an MIC ([1]; read-out: Rifabutin MIC, AB06105, disrupted gene aroP, MHII) of 3.13 µg/mL (≈ 3.7 µM). For the same molecule, the MIC ([1]; read-out: Rifabutin MIC, AB06105, disrupted gene aroP, RPMI) was less than 0.05 µg/mL, the MIC ([1]; read-out: Rifabutin MIC, AB06383, disrupted gene hisJ, MHII) was 6.25 µg/mL (≈ 7.38 µM) and the MIC ([1]; read-out: Rifabutin MIC, AB06383, disrupted gene hisJ, RPMI) was less than 0.05 µg/mL. The MIC ([1]; read-out: Rifabutin MIC, AB06386, disrupted gene hisP, MHII) was 0.78 µg/mL (≈ 0.921 µM), the MIC ([1]; read-out: Rifabutin MIC, AB06386, disrupted gene hisP, RPMI) was less than 0.05 µg/mL and the MIC ([1]; read-out: Rifabutin MIC, AB06392, disrupted gene hisP, MHII) was 0.78 µg/mL (≈ 0.921 µM). The MIC ([1]; read-out: Rifabutin MIC, AB06392, disrupted gene hisP, RPMI) was less than 0.05 µg/mL, the MIC ([1]; read-out: Rifabutin MIC, AB07354, disrupted gene aroP, MHII) was 6.25 µg/mL (≈ 7.38 µM) and the MIC ([1]; read-out: Rifabutin MIC, AB07354, disrupted gene aroP, RPMI) was less than 0.05 µg/mL. For the same molecule, the MIC ([1]; read-out: Rifabutin MIC, AB07356, disrupted gene aroP, MHII) was 1.56 µg/mL (≈ 1.84 µM), the MIC ([1]; read-out: Rifabutin MIC, AB07356, disrupted gene aroP, RPMI) was less than 0.05 µg/mL and the MIC ([1]; read-out: Rifabutin MIC, AB07813, disrupted gene mtr, MHII) was 25 µg/mL (≈ 29.5 µM). For the same molecule, the MIC ([1]; read-out: Rifabutin MIC, AB07813, disrupted gene mtr, RPMI) was less than 0.05 µg/mL, the MIC ([1]; read-out: Rifabutin MIC, AB09979, disrupted gene aroP, MHII) was 0.78 µg/mL (≈ 0.921 µM) and the MIC ([1]; read-out: Rifabutin MIC, AB09979, disrupted gene aroP, RPMI) was less than 0.05 µg/mL. For the same molecule, the MIC ([1]; read-out: Rifabutin MIC, AB09980, disrupted gene tryP, MHII) was 3.13 µg/mL (≈ 3.7 µM), the MIC ([1]; read-out: Rifabutin MIC, AB09980, disrupted gene tryP, RPMI) was less than 0.05 µg/mL and the MIC ([1]; read-out: Rifabutin MIC, AB09982, disrupted gene tryP, MHII) was 6.25 µg/mL (≈ 7.38 µM). For the same molecule, the MIC ([1]; read-out: Rifabutin MIC, AB09982, disrupted gene tryP, RPMI) was less than 0.05 µg/mL and the “efficacy vs RIF” value [2] was “more effective as compared to RIF”.
